Key:
Assay type in all cases: in vivo
corn [1] = test: Example 26, field trials, pre-plant incorporation (PPI): corn growth reduction; conditions: for maximum injury level (GR) / corn growth reduction (GR): PPI
Method: In order to better understand and to confirm the results of greenhouse tests with herbicidal compositions comprising representative compounds according to Formula I and an antidote with and without a co-herbicide, a large number of field trials were conducted. This example provides a summary of those field trials.
The primary purpose of the field trials summarized herein was to ascertain the amount of corn injury caused by a compound according to Formula I. viz. Herbicide No. 1, with and without a co-herbicide of the α-chloroacetanilide class, viz., Herbicide Nos. 6 and 7, and the extent that any corn injury could be safened by a dichloroacetamide antidotal compound, viz., Antidote No. 15.
Corn injury is generally expressed, in broad terms, in stand reduction, growth reduction, malformed plants and other more specific effects. For purposes of the summary here, the results of a plurality of field trials are expressed in terms of growth reduction (GR), i.e., a significant reduction in plant height of the corn stand. A common criteria for commercially-acceptable corn injury is an amount equal to or less than 10% malformed plants or stand reduction and for present reporting purposes, no greater than about 15% growth reduction. The corn injury/safening described for these field trials refers to commercially-unacceptable to commercially-acceptable performance.
In the field trials from a wide distribution of trial locations, soil types (all having in excess of 2% organic matter), climatic effects, etc., the test chemicals were applied as tank mixes in various modes of application, i.e., pre-plant incorporation (PPI) and preemergence surface application (PRE). Test plots were small plots with three replications in a randomized complete block design. Observations were made and recorded in a period of from 31-50 days after treatment.

corn [2] = test: Example 1, greenhouse Procedure II: antidotes against Herbicide No. 1
Method: (§1) Containers were filled and compacted with a fumigated silt loam top soil to a depth of about 1.3 cm from the top of the container. A first container was designated as an untreated control, a second container was designated as a herbicide control, and a third container was designated as a herbicide + antidote test container. Each of the containers was seeded with a crop species. A measured amount of herbicide dispersed or dissolved in acetone was applied to a measured quantity of soil. To this same quantity of soil treated with herbicide, there was added a measured amount of antidote dispersed or dissolved in acetone. The quantity of soil treated with the herbicide and antidote was thoroughly mixed to incorporate the herbicide and antidote in the soil uniformly. The seed bed in the third container of soil was covered with the soil treated with the herbicide and antidote and the container was leveled. For each test series, the seed beds of the first and second containers were likewise covered by soil layers. the cover layer of the first container was not treated with herbicide or antidote.
(§2) The containers were then placed on a bench in a greenhouse and sub-irrigated as required for the duration of the test. […] Plant response is measured in terms of percent injury. Antidote efficacy is indicated as the difference in plant injury by the herbicide(s) without the antidote and with the antidote.
(§3) This procedure is the same as Procedure I, but modified in the manner that after incorporation of the chemicals (herbicide and antidote) the containers with the covered seedbed were treated with an initial overhead irrigation equivalent to 0.6 cm rainfall, then subsequently sub-irrigated as required on greenhouse benches.
In the series of greenhouse tests described below, for routine screening purposes the herbicide/antidote compositions were tested in crop/weed combinations involving corn as the crop and either or both of the weeds barnyardgrass (Echinochloa crusgalli), a monocotyledonous weed, and velvetleaf (Abutilon theophrasti), a dicotyledonous weed. In the tables below, these weeds are indicated by the symbols "BYG" and "VL", respectively.
This example was designed to investigate the antidotal efficacy of a plurality of antidotes against Herbicide No. 1 in corn in the presence of barnyard grass and velvetleaf. The antidotes used in this example were Antidote Nos. 1-10, 12, 13 and 15.
The test in this example was conducted as described above for Procedure II. The antidotes were applied to the soil cover layer by pipet after spraying on the herbicide followed by incorporation and simulated rain.

[3] = system: velvetleaf (Abutilon theophrasti); test: Example 14, Procedure II: Herbicide No. 1 + metolachlor (No. 12) with Antidote No. 17
corn [4] = test: as above
Method: as §1, §2, §3
In this example a plurality of dichloroacetamide antidotes were tested for their safening efficacy against a herbicidal composition comprising Herbicide No. […] The procedure used in this example was Procedure II above. […]

[5] = Herbicide No.1 0.14 + No.12 4.48 kg/ha + Antidote No.17 0.15 kg/ha
[6] = Herbicide No.1 0.56 + No.12 4.48 kg/ha + Antidote No.17 0.15 kg/ha
[7] = Herbicide No.1 2.24 + No.12 4.48 kg/ha + Antidote No.17 0.15 kg/ha

## CC1(C)OC(c2ccco2)CN1C(=O)C(Cl)Cl (stereo not drawn) [Antidote No. 15, Oxazolidine, 3-(dichloroacetyl)-5-(2-furanyl)-2,2-dimethyl]
Corn [1]; Herbicide No. 1 0.14 kg/ha + Herbicide No. 6 + Antidote No. 15
  corn injury level (GR): 10.3%
Corn [1]; Herbicide No. 1 0.28 kg/ha + Herbicide No. 6 + Antidote No. 15
  corn injury level (GR): 12.5%
Corn [1]; Herbicide No. 1 0.7 kg/ha + Herbicide No. 6 + Antidote No. 15
  corn injury level (GR): 8.6%
Corn [1]; Herbicide No. 1 0.07 kg/ha + Herbicide No. 7 + Antidote No. 15 1:1
  maximum injury level (GR): 22%
Corn [1]; Herbicide No. 1 0.07 kg/ha + Herbicide No. 7 + Antidote No. 15 at 1:1 to Herbicide No. 1
  corn growth reduction (GR): 7.75%
Corn [1]; Herbicide No. 1 0.14 kg/ha + Herbicide No. 7 + Antidote No. 15 1:1
  maximum injury level (GR): 26%
Corn [1]; Herbicide No. 1 0.14 kg/ha + Herbicide No. 7 + Antidote No. 15 at 1:1 to Herbicide No. 1
  corn growth reduction (GR): 9.82%
Corn [1]; field trials (PPI and PRE), under most conditions
  safening of corn, assessment in words: effectively reduced corn GR injury

## COC(=O)c1c(Cl)nn(C)c1S(=O)(=O)NC(=O)Nc1nc(OC)cc(OC)n1 [Herbicide No. 1]
Corn [1]; Herbicide No. 1 0.14 kg/ha + Herbicide No. 6 (acetochlor), without an antidote
  corn injury level (GR): 14.9%
Corn [1]; Herbicide No. 1 0.28 kg/ha + Herbicide No. 6 (acetochlor), without an antidote
  corn injury level (GR): 24.9%
Corn [1]; Herbicide No. 1 0.7 kg/ha + Herbicide No. 6 (acetochlor), without an antidote
  corn injury level (GR): 12.5%
Corn [1]; Herbicide No. 1 0.07 kg/ha + Herbicide No. 7 (alachlor), without an antidote
  corn growth reduction (GR): 9.75%
Corn [1]; Herbicide No. 1 0.07 kg/ha + Herbicide No. 7, without an antidote
  maximum injury level (GR): 48%
Corn [1]; Herbicide No. 1 0.14 kg/ha + Herbicide No. 7 (alachlor), without an antidote
  corn growth reduction (GR): 13.25%
Corn [1]; Herbicide No. 1 0.14 kg/ha + Herbicide No. 7, without an antidote
  maximum injury level (GR): 48%
Corn [2]; Herb. No. 1 0.14 kg/ha, no antidote
  % Injury Corn: 5%

## CC1(C)OC(c2ccco2)CN1C(=O)C(Cl)Cl (stereo not drawn) [compound 15]
Corn [2]; Herb. No. 1 0.14 kg/ha + antidote 2.24 kg/ha
  % Injury Corn: 5%
Corn [2]; Herb. No. 1 0.56 kg/ha + antidote 2.24 kg/ha
  % Injury Corn: 5%

## CC1COc2ccccc2N1C(=O)C(Cl)Cl (stereo not drawn) [compound 17]
[3]; [5]
  % Injury VL: 90%
[3]; [6]
  % Injury VL: 95%
[3]; [7]
  % Injury VL: 100%
Corn [4]; [5]
  % Injury Corn: 15%
Corn [4]; [6]
  % Injury Corn: 25%
Corn [4]; [7]
  % Injury Corn: 80%

Source: patent publication EP0603240B1, “SAFENING HERBICIDAL PYRAZOLYLSULFONYLUREAS” (priority 1991, dated 1993)
